This is an account of results in the SangsterLogP compilation.

This data set can be described thus: method code SF-AS, from DOI: 10.1246/bcsj.68.782. Particulars: pH 2.0.

Each structure is given as a SMILES string.

`COc1cc(C(=O)O)cc(OC)c1O` registered a pH-dependent lipophilicity (logD) of 1.13.

The compound `O=C(O)c1cc(Cl)cc(Cl)c1` showed a logD of 3.29.

Compound `Cc1c(C(=O)O)cccc1[N+](=O)[O-]` came in with a logD of 2.16.

`Cc1ccc(C(=O)O)c(O)c1`: the log distribution coefficient (logD) was 2.8.

Regarding `O=C(O)c1cc(O)c(Br)c(O)c1`, the pH-dependent lipophilicity (logD) amounted to 1.75.

For `Cc1ccc([N+](=O)[O-])c(C(=O)O)c1`, the logD came out at 1.63.

`O=C(O)c1ccc(Cl)c([N+](=O)[O-])c1` had a log distribution coefficient (logD) of 2.53.

`O=C(O)c1cccc(F)c1F` returned a logD of 1.88.

Consider `Cc1ccc(C(=O)O)cc1[N+](=O)[O-]`, for which the pH-dependent lipophilicity (logD) came out at 2.35.

On to `COc1c([N+](=O)[O-])cc(C(=O)O)cc1[N+](=O)[O-]`, for which the log distribution coefficient (logD) amounted to 1.73.

Turning to `Cc1cc(C(=O)O)ccc1[N+](=O)[O-]`, the logD was determined as 2.42.

`COc1cc(C(=O)O)cc(OC)c1OC`: the logD was determined as 1.66.

In the case of `O=C(O)c1ccc(Cl)cc1Cl`, the logD worked out at 2.76.
